Data reported in PubChem BioAssay AID1963828 (Molecular Pharmacology Branch, DTP, NCI, 2024).

Test system: 991263-137-R1-J2-PDC complex spheroid viability
Experiment: Anticancer human tumor 991263-137-R1-J2-PDC patient-derived colon adenocarcinoma cell line growth inhibition [POLQ]
Conditions: for IC50: curve of first compound; for viability, T/C: stronger effect = lower value
Outline: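 Complex spheroid viability model combining PDC tumour cells with endothelial (HUVEC) and MSC stromal cells. Novobiocin, ART-558 or RP6685 were tested singly and in combination with standard and investigational anticancer drugs. Each was titrated in half-log steps from near clinical Cmax, or from 10 microM where Cmax was unknown.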

[1] = second compound 0.0316 µM, first compound 0.0316 µM
[2] = second compound 0.0316 µM, first compound 0.1 µM
[3] = second compound 0.0316 µM, first compound 0.316 µM
[4] = second compound 0.0316 µM, first compound 1 µM
[5] = second compound 0.1 µM, first compound 0.0316 µM
[6] = second compound 0.1 µM, first compound 0.1 µM
[7] = second compound 0.1 µM, first compound 0.316 µM
[8] = second compound 0.1 µM, first compound 1 µM
[9] = second compound 0.316 µM, first compound 0.0316 µM
[10] = second compound 0.316 µM, first compound 0.1 µM
[11] = second compound 0.316 µM, first compound 0.316 µM
[12] = second compound 0.316 µM, first compound 1 µM
[13] = second compound 1 µM, first compound 0.0316 µM
[14] = second compound 1 µM, first compound 0.1 µM
[15] = second compound 1 µM, first compound 0.316 µM
[16] = second compound 1 µM, first compound 1 µM
[17] = second compound 3.16 µM, first compound 0.0316 µM
[18] = second compound 3.16 µM, first compound 0.1 µM
[19] = second compound 3.16 µM, first compound 0.316 µM
[20] = second compound 3.16 µM, first compound 1 µM
[21] = second compound 10 µM, first compound 0.0316 µM
[22] = second compound 10 µM, first compound 0.1 µM
[23] = second compound 10 µM, first compound 0.316 µM
[24] = second compound 10 µM, first compound 1 µM
[25] = second compound 0.0316 µM, first compound 3.16 µM
[26] = second compound 0.0316 µM, first compound 10 µM
[27] = second compound 0.1 µM, first compound 3.16 µM
[28] = second compound 0.1 µM, first compound 10 µM
[29] = second compound 0.316 µM, first compound 3.16 µM
[30] = second compound 0.316 µM, first compound 10 µM
[31] = second compound 1 µM, first compound 3.16 µM
[32] = second compound 1 µM, first compound 10 µM
[33] = second compound 3.16 µM, first compound 3.16 µM
[34] = second compound 3.16 µM, first compound 10 µM
[35] = second compound 10 µM, first compound 3.16 µM
[36] = second compound 10 µM, first compound 10 µM
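Note: spheroids exposed to compounds for 7 days before readout.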
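Throughout, for viability, T/C: 100% = DMSO vehicle control viability.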

CCc1c2c(nc3ccc(O)cc13)-c1cc3c(c(=O)n1C2)COC(=O)[C@]3(O)CC + COC1C(OC(N)=O)C(O)C(Oc2ccc3c(O)c(NC(=O)c4ccc(O)c(CC=C(C)C)c4)c(=O)oc3c2C)OC1(C)C
IC50 (second compound 0.0316 µM): 0.0691 µM
IC50 (second compound 0.1 µM): 0.0551 µM
IC50 (second compound 0.316 µM): 0.0592 µM
IC50 (second compound 1 µM): 0.0675 µM
IC50 (second compound 3.16 µM): 0.0999 µM
IC50 (second compound 10 µM): 0.0592 µM
viability, T/C (second compound 0.0316 µM, first compound 0.00316 µM): 102%
viability, T/C (second compound 0.0316 µM, first compound 0.01 µM): 81%
viability, T/C [1]: 54.5%
viability, T/C [2]: 45.3%
viability, T/C [3]: 41.4%
viability, T/C [4]: 25.9%
viability, T/C (second compound 0.1 µM, first compound 0.00316 µM): 106%
viability, T/C (second compound 0.1 µM, first compound 0.01 µM): 88.4%
viability, T/C [5]: 52.9%
viability, T/C [6]: 44%
viability, T/C [7]: 29.1%
viability, T/C [8]: 20.2%
viability, T/C (second compound 0.316 µM, first compound 0.00316 µM): 83.3%
viability, T/C (second compound 0.316 µM, first compound 0.01 µM): 74.9%
viability, T/C [9]: 47.8%
viability, T/C [10]: 48.9%
viability, T/C [11]: 34.9%
viability, T/C [12]: 20.9%
viability, T/C (second compound 1 µM, first compound 0.00316 µM): 92.2%
viability, T/C (second compound 1 µM, first compound 0.01 µM): 81%
viability, T/C [13]: 62.2%
viability, T/C [14]: 41.9%
viability, T/C [15]: 33.6%
viability, T/C [16]: 22.6%
viability, T/C (second compound 3.16 µM, first compound 0.00316 µM): 84.1%
viability, T/C (second compound 3.16 µM, first compound 0.01 µM): 66.6%
viability, T/C [17]: 61.1%
viability, T/C [18]: 54.3%
viability, T/C [19]: 37.1%
viability, T/C [20]: 19.2%
viability, T/C (second compound 10 µM, first compound 0.00316 µM): 104%
viability, T/C (second compound 10 µM, first compound 0.01 µM): 82.3%
viability, T/C [21]: 53.3%
viability, T/C [22]: 46.1%
viability, T/C [23]: 30.6%
viability, T/C [24]: 19.9%

COc1cc(C2c3cc4c(cc3C(OC3OC5COC(C)OC5C(O)C3O)C3COC(=O)C23)OCO4)cc(OC)c1O (stereo unspecified) + COC1C(OC(N)=O)C(O)C(Oc2ccc3c(O)c(NC(=O)c4ccc(O)c(CC=C(C)C)c4)c(=O)oc3c2C)OC1(C)C
IC50 (second compound 0.0316 µM): > 10 µM
IC50 (second compound 0.1 µM): > 10 µM
IC50 (second compound 0.316 µM): > 10 µM
IC50 (second compound 1 µM): > 10 µM
IC50 (second compound 3.16 µM): > 10 µM
IC50 (second compound 10 µM): > 10 µM
viability, T/C [1]: 120%
viability, T/C [2]: 105%
viability, T/C [3]: 98.9%
viability, T/C [4]: 94.9%
viability, T/C [25]: 98.2%
viability, T/C [26]: 76.1%
viability, T/C [5]: 118%
viability, T/C [6]: 108%
viability, T/C [7]: 118%
viability, T/C [8]: 92%
viability, T/C [27]: 95.9%
viability, T/C [28]: 83.3%
viability, T/C [9]: 95.7%
viability, T/C [10]: 104%
viability, T/C [11]: 96.1%
viability, T/C [12]: 90.3%
viability, T/C [29]: 84.8%
viability, T/C [30]: 73.1%
viability, T/C [13]: 107%
viability, T/C [14]: 99.1%
viability, T/C [15]: 100%
viability, T/C [16]: 83.2%
viability, T/C [31]: 106%
viability, T/C [32]: 94%
viability, T/C [17]: 96.2%
viability, T/C [18]: 113%
viability, T/C [19]: 109%
viability, T/C [20]: 115%
viability, T/C [33]: 97.6%
viability, T/C [34]: 72.3%
viability, T/C [21]: 83.9%
viability, T/C [22]: 115%
viability, T/C [23]: 98.9%
viability, T/C [24]: 91.2%
viability, T/C [35]: 101%
viability, T/C [36]: 80.8%

CCc1cc2c(N3CCc4c(cc(Cn5ccnc5)cc4-c4cn(C)nc4C(F)(F)F)C3=O)cc(C)nc2c(OC)n1 + COC1C(OC(N)=O)C(O)C(Oc2ccc3c(O)c(NC(=O)c4ccc(O)c(CC=C(C)C)c4)c(=O)oc3c2C)OC1(C)C
IC50 (second compound 0.0316 µM): > 10 µM
IC50 (second compound 0.1 µM): > 10 µM
IC50 (second compound 0.316 µM): > 10 µM
IC50 (second compound 1 µM): > 10 µM
IC50 (second compound 3.16 µM): > 10 µM
IC50 (second compound 10 µM): > 10 µM
viability, T/C [1]: 108%
viability, T/C [2]: 89.5%
viability, T/C [3]: 103%
viability, T/C [4]: 91.4%
viability, T/C [25]: 100%
viability, T/C [26]: 79.9%
viability, T/C [5]: 109%
viability, T/C [6]: 117%
viability, T/C [7]: 102%
viability, T/C [8]: 89.1%
viability, T/C [27]: 106%
viability, T/C [28]: 101%
viability, T/C [9]: 99.6%
viability, T/C [10]: 113%
viability, T/C [11]: 95.9%
viability, T/C [12]: 92.2%
viability, T/C [29]: 100%
viability, T/C [30]: 88.9%
viability, T/C [13]: 97.4%
viability, T/C [14]: 93.8%
viability, T/C [15]: 81.1%
viability, T/C [16]: 95.8%
viability, T/C [31]: 106%
viability, T/C [32]: 82.2%
viability, T/C [17]: 105%
viability, T/C [18]: 113%
viability, T/C [19]: 101%
viability, T/C [20]: 102%
viability, T/C [33]: 102%
viability, T/C [34]: 86.1%
viability, T/C [21]: 95.4%
viability, T/C [22]: 104%
viability, T/C [23]: 89.8%
viability, T/C [24]: 105%
viability, T/C [35]: 86.4%
viability, T/C [36]: 89.4%
